Reference: ChEMBL document CHEMBL1770093, “Potent antiprotozoal activity of a novel semi-synthetic berberine derivative” (Bioorg Med Chem Lett, 2011)
Structures can show the parent of a compound that is named as a salt.

Tests used:
Leishmania amazonensis [1] = assay: Antileishmanial activity against intracellular Leishmania amazonensis infected in mouse peritoneal macrophages; type: functional, organism-based
[2] = tested on: Trypanosoma brucei brucei; assay: Antitrypanosomal activity against bloodstream form of Trypanosoma brucei brucei; type: functional, organism-based
Plasmodium falciparum = assay: Antimalarial activity against Plasmodium falciparum by flow cytometry; type: functional, organism-based
Vero = assay: Cytotoxicity against african green monkey Vero cells; type: cell-based; settings: Chlorocebus sabaeus
Leishmania amazonensis [3] = assay: Antileishmanial activity against Leishmania amazonensis infected in mouse visceral leishmaniasis model assessed as decrease in parasitemia level in liver at 1 mg/kg/day, ip administered 5 times; type: functional; design: scale not given: the % may be the effect or the level left; settings: route intraperitoneal
[4] = Selectivity index, ratio of IC50 for african green monkey Vero cells to IC50 for bloodstream form of Trypanosoma brucei brucei; type: toxicity, cell-based; settings: read-out: Ratio IC50
Mus musculus = assay: Toxicity in Leishmania amazonensis infected mouse visceral leishmaniasis model at > 1 mg/kg/day, ip; type: organism-based; design: route intraperitoneal; settings: in vivo
Leishmania amazonensis [5] = assay: Antileishmanial activity against Leishmania amazonensis infected in mouse visceral leishmaniasis model assessed as decrease in parasitemia level in liver at 10 mg/kg/day, ip administered 5 times; type: functional; design: scale not given: the % may be the effect or the level left; settings: route intraperitoneal

Row | SMILES | IC50 (Leishmania amazonensis [1]) | IC50 [2] | IC50 (Plasmodium falciparum) | other results
1 | CCC1(CC)c2c(ccc(OC)c2OC)C(=O)c2c3cc4c(cc3cc[n+]21)OCO4.[Cl-] | 180 nM | 9.1 nM | 36 nM | IC50 (Vero): 91000 nM; Activity (Leishmania amazonensis [3]): 47%; selectivity ratio [4]: 10000; Activity (Mus musculus): Toxic
2 | C[C@@H]1[C@H](O)[C@@H](C)/C=C/C=C/C=C/C=C/C=C/C=C/C=C/[C@H](O[C@@H]2O[C@H](C)[C@@H](O)[C@H](N)[C@@H]2O)C[C@@H]2O[C@](O)(C[C@@H](O)C[C@@H](O)[C@H](O)CC[C@@H](O)C[C@@H](O)CC(=O)O[C@H]1C)C[C@H](O)[C@H]2C(=O)O [AMPHOTERICIN B] | 120 nM | – | – | –
3 | COc1ccc2cc3[n+](cc2c1OC)CCc1cc2c(cc1-3)OCO2 [BERBERINE SULFATE] | 17000 nM | 1100 nM | 800 nM | –
4 | CCCCCCCCCCCCCCCCOP(=O)([O-])OCC[N+](C)(C)C [MILTEFOSINE] | – | – | – | Activity (Leishmania amazonensis [5]): 98%
5 | Cc1ccc(C(=O)Nc2ccc(S(=O)(=O)O)c3cc(S(=O)(=O)O)cc(S(=O)(=O)O)c23)cc1NC(=O)c1cccc(NC(=O)Nc2cccc(C(=O)Nc3cc(C(=O)Nc4ccc(S(=O)(=O)O)c5cc(S(=O)(=O)O)cc(S(=O)(=O)O)c45)ccc3C)c2)c1 [SURAMIN] | – | 250 nM | – | –
